Reference: publication PMC7343746, “(2S, 4R)-4-[^18F]Fluoroglutamine for In vivo PET Imaging of Glioma Xenografts in Mice: an Evaluation of Multiple Pharmacokinetic Models” (Molecular Imaging and Biology, 2020)

Key:
[1] = tested on: rat BT4C glioma cells; assay: In vivo PET imaging of subcutaneous glioma xenografts; design: species or system Foxn1^nu/nu mouse; settings: for Tumor-to-background muscle ratio: at uptake plateau around 12.5 min
Description: The subcutaneous tumor model was created by injecting rat BT4C glioma cells subcutaneously into the hind leg and neck region of six athymic nude (Foxn1^nu/nu, Envigo, Gannant, France) mice at 7 weeks old. Tumor growth was visually tracked and subjects PET imaged after 5 weeks. See Electronic Supplemental Materials (ESM) for detailed animal models.
One to two mice were imaged at a time while under 2 % isoflurane anesthesia with an Inveon multimodality small animal PET/CT scanner (Siemens Medical Solutions, Munich, Germany) commencing with an attenuation CT scan to correct the PET scan data. Ten to twelve megabequerels of the tracer was injected into the tail vein, and the subject(s) were imaged over a 60-min period in list mode dividing framing into 6 × 10 s, 4 × 60 s, 5 × 300 s, 3 × 600 s. Obtained sinograms were reconstructed using the ordered-subset expectation maximization 2-dimensional algorithm to obtain the final PET images and back-corrected for radionuclide decay.
(§1) Image analysis was performed using CARIMAS software published and freely distributed by the Turku PET Center (http://turkupetcentre.fi/carimas/). CT scans were used as rough anatomical reference while tumor regions of interest (ROI) were hand-drawn based upon observed spikes of radioactivity in the PET images at locations correlating with recorded tumor grafts. Control muscle ROIs were drawn on the side opposite to the tumor in the leg flank muscle (based on CT) while the blood ROI was drawn based upon heart anatomical location and observed PET image radioactivity spike during the initial 20 s of imaging in the left ventricle. Standardized uptake values (SUV) were calculated with respect to ROI volume, mean and max tumor radioactivity, total injected radioactivity dose (corrected for tail, cannula, and syringe residual radioactivity), and animal weight, and were additionally presented as tumor-to-background ratio (TBR, tumor-to-healthy brain region for intracranial gliomas and tumor-to-muscle for subcutaneous gliomas) as defined by recent glioma research literature standards. Mean and maximum TBR values were reported as ROI radioactivity per volume divided by mean background radioactivity per volume. The blood radioactivity SUV and gender-specific metabolite-corrected blood radioactivity SUV were then applied to multiple pharmacokinetic models to characterize the flux of the tracer (further described in the “Modeling” section).

[2] = tested on: patient-derived BT3 glioma cells; assay: Ex vivo autoradiography of brain cryosections, orthotopic glioma; format: in vivo, BALB/cOlaHsd-Foxn1^nu mouse; settings: for Autoradiography TBRmean: n = 12 brain sections
Description: (§2) See Suppl. Materials in ESM for detailed descriptions of biodistribution, stability, cryosectioning, autoradiography, and histology.

[3] = tested on: rat BT4C glioma cells; assay: Ex vivo biodistribution; format: in vivo, Foxn1^nu/nu mouse; settings: higher than subcutaneous tumor
Description: as §2
Ex Vivo Biodistribution Results
The tracer accumulated highly in the pancreatic tissue with notable high uptake in the skull (bo ne) and femur (bone + marrow). The bone uptake is classically characteristic of defluorination occurring which leads to absorption into the osseous tissue. […]
adipose tissue likely due to the comparative increased number of metabolic processes which encompass its cell type characteristics.
Supplemental Fig. 11. Ex vivo biodistribution averages of [ 18F]FGln uptake 63 minutes post-injection in subcutaneously xenografted BT4C tumor bearing Foxn1 nu/nu mice (female, n = 5) and control C57BL/6JRj […]

[4] = tested on: patient-derived BT3 glioma cells; assay: Logan plot (reversible uptake model), orthotopic model; format: in vivo, BALB/cOlaHsd-Foxn1^nu mouse; settings: for Logan DV (AB) distribution volume / Logan Ic (AB) y intercept: AB input; for Logan DV (PC) distribution volume / Logan IC (PC) y intercept: PC input
Description: as §1
(§3) Using the heart’s left ventricle ROI from the PET data as an uncorrected radioactivity level input and the bioavailable parent-tracer fraction (results: Eqs. 3 and 4 applied to the uncorrected input) as the corrected input, multiple models were investigated to characterize the tissue uptake dynamics. Two-compartment modeling and Logan, Patlak, and Yokoi plots were used to separately model the pharmacokinetics for the gliomas (both subcutaneous and orthotopic loci) and their respective control tissues (healthy muscle and healthy brain, respectively). Where indicated, means plus/minus standard deviations are reported. Difference in parameters for uncorrected versus correct and target tissue versus their respective control regions were tested with students’ paired t tests with P values lower than 0.05 being considered significant.

[5] = tested on: patient-derived BT3 glioma cells; assay: Patlak plot (irreversible uptake model), orthotopic model; format: in vivo, BALB/cOlaHsd-Foxn1^nu mouse; settings: for Patlak Ic (AB) y intercept: AB input; for Patlak Ic (PC) y intercept: PC input
Description: as §1, §3

[6] = tested on: rat BT4C glioma cells; assay: Patlak plot (irreversible uptake model), subcutaneous model; format: in vivo, Foxn1^nu/nu mouse; settings: for Patlak Ic (AB) y intercept: AB input; for Patlak Ic (PC) y intercept: PC input
Description: as §1, §3

[7] = Bone (femoral condyle) average (n = 6)

Question: How did the Tumor-to-background muscle ratio ([1]; flank locus) turn out when NC(=O)[C@H]([18F])C[C@H](N)C(=O)O [[^18F]FGln, (2S, 4R)-4-[^18F]fluoroglutamine] was run?
Answer: 2.0 ± 0.8

Question: What about the Tumor-to-background muscle ratio ([1]; neck locus) of the same compound?
Answer: 1.8 ± 0.6

Question: And the “PET tumor-to-muscle (flank) ratio” value ([1]; subcutaneous BT4C gliomas, n = 12)?
Answer: 1.9 ± 0.7

Question: And the “Time at which tracer uptake plateaued” value ([1]; subcutaneous BT4C tumors)?
Answer: around 12.5 min

Question: What about the “Autoradiography TBRmean” value ([2]; Subject A) of the same compound?
Answer: 8.9 ± 1.1 (range 7.2–10.5)

Question: What about the “Autoradiography TBRmean” value ([2]; Subject B) of the same compound?
Answer: 9.9 ± 0.7 (range 8.9–11.0)

Question: And the “Autoradiography TBRmean” value ([2]; Subject C)?
Answer: 7.8 ± 0.4 (range 7.3–8.4)

Question: And the “Autoradiography TBR, average” value ([2]; n = 3 subjects, 36 sections)?
Answer: 8.9 ± 1.1

Question: And the “Pancreas uptake relative to tumor” value [3]?
Answer: 6 fold

Question: And the “Logan DV (AB) distribution volume” value ([4]; Subject A brain (control))?
Answer: 1.61

Question: What about the “Logan Ic (AB) y intercept” value ([4]; Subject A brain (control)) of the same compound?
Answer: -14.15

Question: And the “Logan DV (PC) distribution volume” value ([4]; Subject A brain (control))?
Answer: 2.97

Question: And the “Logan IC (PC) y intercept” value ([4]; Subject A brain (control))?
Answer: -25.16

Question: What about the “Logan DV (AB) distribution volume” value ([4]; Subject A glioma max.) of the same compound?
Answer: 0.34

Question: What about the “Logan Ic (AB) y intercept” value ([4]; Subject A glioma max.) of the same compound?
Answer: -18.72

Question: What about the “Logan DV (PC) distribution volume” value ([4]; Subject A glioma max.) of the same compound?
Answer: 0.67

Question: And the “Logan IC (PC) y intercept” value ([4]; Subject A glioma max.)?
Answer: -34.83

Question: What about the “Logan DV (AB) distribution volume” value ([4]; Subject A o.t. glioma) of the same compound?
Answer: 1.51

Question: What about the “Logan Ic (AB) y intercept” value ([4]; Subject A o.t. glioma) of the same compound?
Answer: -19.69

Question: What about the “Logan DV (PC) distribution volume” value ([4]; Subject A o.t. glioma) of the same compound?
Answer: 2.97

Question: And the “Logan IC (PC) y intercept” value ([4]; Subject A o.t. glioma)?
Answer: -36.03

Question: What about the “Logan Ic (AB) y intercept” value ([4]; Subject B brain (control)) of the same compound?
Answer: -61.91

Question: What about the “Logan DV (PC) distribution volume” value ([4]; Subject B brain (control)) of the same compound?
Answer: 2.57

Question: And the “Logan IC (PC) y intercept” value ([4]; Subject B brain (control))?
Answer: -50.78

Question: What about the “Logan DV (AB) distribution volume” value ([4]; Subject B glioma max.) of the same compound?
Answer: 1.27

Question: And the “Logan Ic (AB) y intercept” value ([4]; Subject B glioma max.)?
Answer: -26.85

Question: What about the “Logan DV (PC) distribution volume” value ([4]; Subject B glioma max.) of the same compound?
Answer: 0.60

Question: What about the “Logan IC (PC) y intercept” value ([4]; Subject B glioma max.) of the same compound?
Answer: -36.40

Question: And the “Logan DV (AB) distribution volume” value ([4]; Subject B o.t. glioma)?
Answer: 0.32

Question: What about the “Logan Ic (AB) y intercept” value ([4]; Subject B o.t. glioma) of the same compound?
Answer: -20.23

Question: And the “Logan DV (PC) distribution volume” value ([4]; Subject B o.t. glioma)?
Answer: 1.95

Question: What about the “Logan IC (PC) y intercept” value ([4]; Subject B o.t. glioma) of the same compound?
Answer: -41.27

Question: What about the “Patlak Ic (AB) y intercept” value ([5]; Subject A brain (control)) of the same compound?
Answer: 0.1654

Question: What about the “Patlak Ic (PC) y intercept” value ([5]; Subject A brain (control)) of the same compound?
Answer: 0.2100

Question: And the “Patlak Ic (AB) y intercept” value ([5]; Subject A glioma max.)?
Answer: 1.07

Question: And the “Patlak Ic (PC) y intercept” value ([5]; Subject A glioma max.)?
Answer: 1.4536

Question: What about the “Patlak Ic (AB) y intercept” value ([5]; Subject A o.t. glioma) of the same compound?
Answer: 0.7386

Question: What about the “Patlak Ic (PC) y intercept” value ([5]; Subject A o.t. glioma) of the same compound?
Answer: 0.9480

Question: And the “Patlak Ic (AB) y intercept” value ([5]; Subject B brain (control))?
Answer: 0.1316

Question: What about the “Patlak Ic (PC) y intercept” value ([5]; Subject B brain (control)) of the same compound?
Answer: 0.1563

Question: And the “Patlak Ic (AB) y intercept” value ([5]; Subject B glioma max.)?
Answer: 0.4556

Question: And the “Patlak Ic (PC) y intercept” value ([5]; Subject B glioma max.)?
Answer: 0.5434

Question: And the “Patlak Ic (AB) y intercept” value ([5]; Subject B o.t. glioma)?
Answer: 0.4687

Question: And the “Patlak Ic (PC) y intercept” value ([5]; Subject B o.t. glioma)?
Answer: 0.5996

Question: What about the “Patlak Ic (AB) y intercept” value [6, 7] of the same compound?
Answer: 0.5752 ± 0.1597

Question: What about the “Patlak Ic (PC) y intercept” value [6, 7] of the same compound?
Answer: 0.3705 ± 0.2561

Question: And the “Patlak Ic (AB) y intercept” value ([6]; Flank muscle average (n = 6))?
Answer: 0.5790 ± 0.1835

Question: What about the “Patlak Ic (PC) y intercept” value ([6]; Flank muscle average (n = 6)) of the same compound?
Answer: 0.8154 ± 0.2742

Question: And the “Patlak Ic (AB) y intercept” value ([6]; Flank tumor average (n = 6))?
Answer: 1.0521 ± 0.2524

Question: What about the “Patlak Ic (PC) y intercept” value ([6]; Flank tumor average (n = 6)) of the same compound?
Answer: 1.5318 ± 0.3888

Question: And the “Patlak Ic (AB) y intercept” value ([6]; Neck tumor average (n = 6))?
Answer: 1.2083 ± 0.1715

Question: What about the “Patlak Ic (PC) y intercept” value ([6]; Neck tumor average (n = 6)) of the same compound?
Answer: 1.7708 ± 0.2668

Question: What about the “Irreversible uptake rate relative to reversible uptake rates” value ([6]; Patlak versus reversible models) of the same compound?
Answer: roughly 15 times lower
